In patent US20050009886A1, “1,4-Dihydropyridine derivative with a guaiacoxypropanolamine and/or phenoxypropanolamine moiety” (priority 1998, published 2005):

Assays:
[1] = Heart rate and blood pressure in living rat; assay type: in vivo, Wistar rats
Source text: Male Wistar rats, weighing 200˜300 g were abdominal anaesthetized with pentobarbital sodium. Tracheal was cannulated to maintain normal respiration. Polyethylene tube was inserted into the left femoral vein to facilitate drug administration. A 3-way stopcock was used, with one end connected to a syringe for drug injection, while the other end was connected to the syringe filled with physiological saline. The latter was used to prevent residual drugs in the polyethylene tube after injection, which would affect experimental accuracy.
The right femoral artery was also inserted with polyethylene, and a 3-way stopcock was used too, where one end was connected to heparin solution to prevent embolism. The other end was connected to a Disposable Diaphragm Dome, TA1019, and linked to a transducer. Through an amplifier, a recorder recorded the overall and average arterial pressure; heart rate to evaluate the effect of drug on blood pressure and heart rate.

[2] = system: thoracic aorta; assay: Isolated thoracic aorta contraction caused by 75 mM KCl; design: species or system Wistar rat
Description: After sacrificing Wistar rat of weight between 300-500 gm, the thoracic aorta was immediately removed and placed in cold Kreb's solution. The fatty connecting tissue surrounding the vessel wall was removed and the thoracic aorta was cut into rings of length 5 mm. The two ends of each ring was pieced and fixed with “Z” shaped platinum wires. […] The sample was given 1 gm of tension and equilibrated for 60 minutes before the following experiments were carried out:
After thoracic aorta had reached equilibrium in the tissue trough, the normal Kreb's solution in the trough was replaced with 75 mM KCl solution to induce vasoconstriction. When the results had been recorded for at least 35 minutes, the aorta was repeatedly rinsed with normal Kreb's solution. After the aorta had re-equilibrated and at least rested for 60 minutes, different concentrations (10^−8, 10^−7, 10^−6, and 10^−5M) of compound 1 were separately added. 30 minutes later, 75 mM KCl was added again to induce vasoconstriction. This method was used to compare the differences in contraction induced by 75 mM KCl on thoracic aorta pre-treated and non-treated with compound 1.
0.1 μM of BayK8644 was first added into the tissue trough. 10 minutes later, 75 mM of concentrated Potassium solution was added to induce thoracic aorta contraction. When vasoconstriction had reached stability, different concentrations of (10^−8, 10^−7, 10^−6, and 10^−5M) compound 1 were separately added. The effects of aorta contraction induced by concentrated Potassium solution were observed.

[3] = 1 mg/kg via femoral vein, anaesthetized rat
[4] = intravenous 0.1-2.0 mg/kg, normotensive rats

COC(=O)C1=C(C)NC(C)=C(C(=O)OC)C1c1ccc(OCC(O)CNC(C)(C)C)c(OC)c1 (centres unmarked) [Compound 1]
Lowering of Blood Pressure [1, 3]: 70 ± 3 mmHg
Reduction of Heart Rate [1, 3]: 30 ± 2 beats/min
effect on heart rate ([1]; intravenous 0.5 mg/kg): a decrease in heart rate
duration of blood pressure lowering effect [1, 4]: approximately 1 hour
effect on blood pressure and heart rate [1, 4]: continuous dose-dependent blood pressure lowering effect without increasing heart rate
effect on 75 mM KCl contracted thoracic aorta ([2]; 10^−8, 10^−7, 10^−6, and 10^−5 M): dose-dependant vasoconstriction
Aorta Relaxation ([2]; 10^−8M, 75 mM KCl contraction): 30 ± 3%
effect of 0.1 μM BayK8644 pre-treatment on the aorta effect ([2]; BayK8644 0.1 μM 10 minutes, then concentrated Potassium solution): would affect vasoconstriction function
